Measured values published in the NIST ThermoML archive (doi:10.1021/je200038n).

Tests used:
[1] = wn = mass fraction of the nth substance listed; settings: 3000 kPa, Liquid; for mass density: Vibrating tube method; for viscosity: Moving piston method
[2] = molar heat capacity at constant pressure; wn = mass fraction of the nth substance listed; settings: 3000 kPa, Liquid, Flow calorimetry

N#C[S-].[Na+] [sodium thiocyanate] + N
Settings	mass density [kg/m3]	molar heat capacity at constant pressure [J/K/mol]	viscosity [mPa·s]
[1], 312.4 K, w2 = 0.797	724.2	–	–
[1], 312.4 K, w2 = 0.8921	648.1	–	–
[1], 316.8 K, w2 = 0.797	–	–	0.23
[1], 317 K, w2 = 0.614	857.4	–	0.62
[1], 317 K, w2 = 0.6824	–	–	0.4
[1], 317.1 K, w2 = 0.4998	–	–	1.15
[1], 317.1 K, w2 = 0.797	718.9	–	–
[1], 317.2 K, w2 = 0.4998	929.3	–	–
[1], 317.2 K, w2 = 0.6824	807	–	–
[1], 321.5 K, w2 = 0.797	–	–	0.22
[1], 321.6 K, w2 = 0.8921	–	–	0.15
[1], 321.7 K, w2 = 0.614	–	–	0.57
[1], 321.7 K, w2 = 0.6824	–	–	0.38
[1], 321.8 K, w2 = 0.4998	–	–	1.06
[1], 321.8 K, w2 = 0.614	852.4	–	–
[1], 321.8 K, w2 = 0.797	713.6	–	–
[1], 321.9 K, w2 = 0.4998	925.5	–	–
[1], 321.9 K, w2 = 0.6824	800.5	–	–
[1], 322 K, w2 = 0.8921	635.4	–	–
[1], 326.4 K, w2 = 0.797	–	–	0.21
[1], 326.5 K, w2 = 0.614	–	–	0.53
[1], 326.5 K, w2 = 0.6824	–	–	0.36
[1], 326.6 K, w2 = 0.4998	–	–	1
[1], 326.6 K, w2 = 0.614	846.9	–	–
[1], 326.6 K, w2 = 0.797	708.4	–	–
[1], 326.7 K, w2 = 0.4998	921.4	–	–
[1], 326.7 K, w2 = 0.6824	795	–	–
[1], 331 K, w2 = 0.8921	–	–	0.13
[1], 331.1 K, w2 = 0.797	–	–	0.2
[1], 331.2 K, w2 = 0.614	–	–	0.51
[1], 331.2 K, w2 = 0.6824	–	–	0.35
[1], 331.4 K, w2 = 0.4998	–	–	0.92
[1], 331.4 K, w2 = 0.614	843.1	–	–
[1], 331.4 K, w2 = 0.6824	792	–	–
[1], 331.4 K, w2 = 0.797	701	–	–
[1], 331.5 K, w2 = 0.4998	917.4	–	–
[1], 335.7 K, w2 = 0.797	–	–	0.19
[1], 336 K, w2 = 0.6824	–	–	0.33
[1], 336.1 K, w2 = 0.614	–	–	0.47
[1], 336.2 K, w2 = 0.614	838.1	–	–
[1], 336.2 K, w2 = 0.797	692.7	–	–
[1], 336.3 K, w2 = 0.4998	913.3	–	0.87
[1], 336.3 K, w2 = 0.6824	783.1	–	–
[1], 340.6 K, w2 = 0.797	–	–	0.18
[1], 340.8 K, w2 = 0.614	–	–	0.46
[1], 340.8 K, w2 = 0.6824	–	–	0.31
[1], 341 K, w2 = 0.797	686.7	–	–
[1], 341.1 K, w2 = 0.4998	–	–	0.82
[1], 341.1 K, w2 = 0.614	832.6	–	–
[1], 341.1 K, w2 = 0.6824	775.2	–	–
[1], 341.2 K, w2 = 0.4998	909.2	–	–
[1], 345.6 K, w2 = 0.614	–	–	0.43
[1], 345.9 K, w2 = 0.4998	–	–	0.77
[1], 346 K, w2 = 0.4998	905.1	–	–
[1], 346 K, w2 = 0.614	826.5	–	–
[1], 350.2 K, w2 = 0.614	–	–	0.4
[1], 350.4 K, w2 = 0.4998	–	–	0.73
[1], 350.9 K, w2 = 0.4998	900.9	–	–
[1], 359.7 K, w2 = 0.4998	–	–	0.65
[1], 369.5 K, w2 = 0.4998	–	–	0.58
[2], 304.17 K, w2 = 0.4992	–	63.48	–
[2], 304.17 K, w2 = 0.5988	–	72.55	–
[2], 304.17 K, w2 = 0.7013	–	76.74	–
[2], 304.17 K, w2 = 0.9	–	81.53	–
[2], 314.14 K, w2 = 0.4992	–	64.61	–
[2], 314.14 K, w2 = 0.5988	–	72.3	–
[2], 314.14 K, w2 = 0.7013	–	77.73	–
[2], 314.14 K, w2 = 0.7961	–	81.14	–
[2], 314.14 K, w2 = 0.9	–	81.93	–
[2], 324.11 K, w2 = 0.4992	–	64.64	–
[2], 324.11 K, w2 = 0.5988	–	72.13	–
[2], 324.11 K, w2 = 0.7013	–	77.86	–
[2], 324.11 K, w2 = 0.7961	–	82.16	–
[2], 324.11 K, w2 = 0.9	–	83.77	–
[2], 334.09 K, w2 = 0.4992	–	65.26	–
[2], 334.09 K, w2 = 0.5988	–	72.48	–
[2], 334.09 K, w2 = 0.7013	–	78.17	–
[2], 334.09 K, w2 = 0.7961	–	82.8	–
[2], 334.09 K, w2 = 0.9	–	85.93	–
[2], 344.07 K, w2 = 0.4992	–	65.94	–
[2], 344.07 K, w2 = 0.5988	–	73.3	–
[2], 344.07 K, w2 = 0.7013	–	79.2	–
[2], 354.06 K, w2 = 0.4992	–	67.29	–
[2], 354.06 K, w2 = 0.5988	–	74.12	–
[2], 364.15 K, w2 = 0.4992	–	70.3	–
